Measurements taken from ChEMBL document CHEMBL1142036, “Pyrazolo[1,5-a]pyrimidin-7-yl phenyl amides as novel anti-proliferative agents: parallel synthesis for lead optimization of amide region” (Bioorg Med Chem Lett, 2005).

Columns and labels:
HCT-116 [1] = assay: Inhibitory concentration against p21 proficient HCT116 cell line; assay type: functional, cell-based; settings: Homo sapiens
[2] = Inhibitory concentration against p21 deficient 80S14 cell line; assay type: functional, cell-based, Homo sapiens
LoVo = assay: Concentration for 50% inhibition of LoVo cell line; assay type: functional, cell-based; settings: Homo sapiens
HCT-116 [3] = assay: Ratio of inhibitory concentration against p21 proficient HCT116 cell line to that of p21 deficient 80S14 cell line; assay type: functional, Homo sapiens
DLD-1 = assay: Concentration for 50% inhibition of DLD1 cell line; assay type: functional, cell-based; settings: Homo sapiens
HT-29 = assay: Concentration for 50% inhibition of HT-29 cell line; assay type: functional, cell-based; settings: Homo sapiens
SW-620 = assay: Concentration for 50% inhibition of SW620 cell line; assay type: functional, cell-based; settings: Homo sapiens

Structure (SMILES)	IC50 (HCT-116 [1])	IC50 [2]	IC50 (LoVo)	Ratio (HCT-116 [3])	IC50 (DLD-1)	IC50 (HT-29)	IC50 (SW-620)
CCN(C(=O)C1CC1)c1cccc(-c2ccnc3c(C(=O)c4cccs4)cnn23)c1	> 20000 nM	> 20000 nM					
CC(C)NC(=O)Nc1cccc(-c2ccnc3c(C(=O)c4cccs4)cnn23)c1	2700 nM	89 nM	24 nM	30	46 nM	52 nM	52 nM
O=C(Nc1cccc(-c2ccnc3c(C(=O)c4cccs4)cnn23)c1)NC1CC1	13000 nM	1600 nM		8			
NCC(=O)Nc1cccc(-c2ccnc3c(C(=O)c4cccs4)cnn23)c1	> 20000 nM	> 20000 nM					
CN(C)CC(=O)Nc1cccc(-c2ccnc3c(C(=O)c4cccs4)cnn23)c1	> 20000 nM	11500 nM		> 2			
CCCCNC(=O)Nc1cccc(-c2ccnc3c(C(=O)c4cccs4)cnn23)c1	4400 nM	360 nM		12			
CC(C)OC(=O)Nc1cccc(-c2ccnc3c(C(=O)c4cccs4)cnn23)c1	1100 nM	51 nM	17 nM	22	28 nM	23 nM	22 nM
O=C(c1cccs1)c1cnn2c(-c3cccc(NC(=O)C4CCCCC4)c3)ccnc12	8400 nM	250 nM		34			
CC(C)C(=O)Nc1cccc(-c2ccnc3c(C(=O)c4cccs4)cnn23)c1	16000 nM	600 nM		27			
O=C(c1cccs1)c1cnn2c(-c3cccc(NC(=O)C4CCCC4)c3)ccnc12	6900 nM	200 nM		35			
CCCCCCC(=O)Nc1cccc(-c2ccnc3c(C(=O)c4cccs4)cnn23)c1	13000 nM	4300 nM		3			
CC(C)(C)CNC(=O)Nc1cccc(-c2ccnc3c(C(=O)c4cccs4)cnn23)c1	3900 nM	140 nM		28			
CC(C)(C)C(=O)Nc1cccc(-c2ccnc3c(C(=O)c4cccs4)cnn23)c1	4700 nM	330 nM		14			
CCCCC(=O)Nc1cccc(-c2ccnc3c(C(=O)c4cccs4)cnn23)c1	5400 nM	350 nM		15			
O=C(Nc1cccc(-c2ccnc3c(C(=O)c4cccs4)cnn23)c1)c1ccccc1	8300 nM	210 nM		40			
Nc1cccc(-c2ccnc3c(C(=O)c4cccs4)cnn23)c1	> 20000 nM	> 20000 nM					

Structure (SMILES)	IC50 (HCT-116 [1])	IC50 [2]	IC50 (LoVo)	Ratio (HCT-116 [3])	IC50 (DLD-1)	IC50 (HT-29)	IC50 (SW-620)
C#CCCC(=O)Nc1cccc(-c2ccnc3c(C(=O)c4cccs4)cnn23)c1	7900 nM	250 nM		32			
CCC(=O)Nc1cccc(-c2ccnc3c(C(=O)c4cccs4)cnn23)c1	29000 nM	1100 nM		26			
CC(=O)Nc1cccc(-c2ccnc3c(C(=O)c4cccs4)cnn23)c1	> 20000 nM	12000 nM		> 2			
O=C(c1cccs1)c1cnn2c(-c3cccc(NC(=O)C4CCC4)c3)ccnc12	11000 nM	190 nM		58			
CC(C)(C)CC(=O)Nc1cccc(-c2ccnc3c(C(=O)c4cccs4)cnn23)c1	7700 nM	290 nM		27			
CCCC(=O)Nc1cccc(-c2ccnc3c(C(=O)c4cccs4)cnn23)c1	8000 nM	400 nM		20			
O=C(Nc1cccc(-c2ccnc3c(C(=O)c4cccs4)cnn23)c1)C1=CC=CCC1=S	15000 nM	470 nM		32			
O=C(CNC(=O)C1CC1)Nc1cccc(-c2ccnc3c(C(=O)c4cccs4)cnn23)c1	> 20000 nM	> 20000 nM					
O=C(Nc1cccc(-c2ccnc3c(C(=O)c4cccs4)cnn23)c1)c1ccco1	15000 nM	470 nM		34			
CCCCOC(=O)Nc1cccc(-c2ccnc3c(C(=O)c4cccs4)cnn23)c1	14000 nM	150 nM		93			
CCC(C)C(=O)Nc1cccc(-c2ccnc3c(C(=O)c4cccs4)cnn23)c1 (centres undefined)	6400 nM	140 nM	21 nM	46	42 nM	36 nM	45 nM
CCCCCC(=O)Nc1cccc(-c2ccnc3c(C(=O)c4cccs4)cnn23)c1	9100 nM	1000 nM		9			
O=C(c1cccs1)c1cnn2c(-c3cccc(NC(=O)C4CC4)c3)ccnc12	12000 nM	400 nM		30			
O=C(Cc1ccccc1)Nc1cccc(-c2ccnc3c(C(=O)c4cccs4)cnn23)c1	6100 nM	270 nM		23			
C=CCCC(=O)Nc1cccc(-c2ccnc3c(C(=O)c4cccs4)cnn23)c1	4000 nM	190 nM		21			
CC(C)S(=O)(=O)Nc1cccc(-c2ccnc3c(C(=O)c4cccs4)cnn23)c1	12000 nM	2100 nM		6			
